The target in assay [1] is Sodium channel protein type 5 subunit alpha (Homo sapiens, UniProt Q14524). As to the kind of experiment: Inhibition of human NaV1.5 at -140 mV holding potential by whole-cell patch clamp assay. A general note: The patch-clamp technique gives a direct electrical read-out from membranes.
For assay [2], the target named is Sodium channel protein type 9 subunit alpha (Homo sapiens, UniProt Q15858). As to the kind of experiment: Inhibition of human NaV1.7 at -140 mV holding potential by whole-cell patch clamp assay.
Chain of Sodium channel protein type 9 subunit alpha (Q15858 whole entry): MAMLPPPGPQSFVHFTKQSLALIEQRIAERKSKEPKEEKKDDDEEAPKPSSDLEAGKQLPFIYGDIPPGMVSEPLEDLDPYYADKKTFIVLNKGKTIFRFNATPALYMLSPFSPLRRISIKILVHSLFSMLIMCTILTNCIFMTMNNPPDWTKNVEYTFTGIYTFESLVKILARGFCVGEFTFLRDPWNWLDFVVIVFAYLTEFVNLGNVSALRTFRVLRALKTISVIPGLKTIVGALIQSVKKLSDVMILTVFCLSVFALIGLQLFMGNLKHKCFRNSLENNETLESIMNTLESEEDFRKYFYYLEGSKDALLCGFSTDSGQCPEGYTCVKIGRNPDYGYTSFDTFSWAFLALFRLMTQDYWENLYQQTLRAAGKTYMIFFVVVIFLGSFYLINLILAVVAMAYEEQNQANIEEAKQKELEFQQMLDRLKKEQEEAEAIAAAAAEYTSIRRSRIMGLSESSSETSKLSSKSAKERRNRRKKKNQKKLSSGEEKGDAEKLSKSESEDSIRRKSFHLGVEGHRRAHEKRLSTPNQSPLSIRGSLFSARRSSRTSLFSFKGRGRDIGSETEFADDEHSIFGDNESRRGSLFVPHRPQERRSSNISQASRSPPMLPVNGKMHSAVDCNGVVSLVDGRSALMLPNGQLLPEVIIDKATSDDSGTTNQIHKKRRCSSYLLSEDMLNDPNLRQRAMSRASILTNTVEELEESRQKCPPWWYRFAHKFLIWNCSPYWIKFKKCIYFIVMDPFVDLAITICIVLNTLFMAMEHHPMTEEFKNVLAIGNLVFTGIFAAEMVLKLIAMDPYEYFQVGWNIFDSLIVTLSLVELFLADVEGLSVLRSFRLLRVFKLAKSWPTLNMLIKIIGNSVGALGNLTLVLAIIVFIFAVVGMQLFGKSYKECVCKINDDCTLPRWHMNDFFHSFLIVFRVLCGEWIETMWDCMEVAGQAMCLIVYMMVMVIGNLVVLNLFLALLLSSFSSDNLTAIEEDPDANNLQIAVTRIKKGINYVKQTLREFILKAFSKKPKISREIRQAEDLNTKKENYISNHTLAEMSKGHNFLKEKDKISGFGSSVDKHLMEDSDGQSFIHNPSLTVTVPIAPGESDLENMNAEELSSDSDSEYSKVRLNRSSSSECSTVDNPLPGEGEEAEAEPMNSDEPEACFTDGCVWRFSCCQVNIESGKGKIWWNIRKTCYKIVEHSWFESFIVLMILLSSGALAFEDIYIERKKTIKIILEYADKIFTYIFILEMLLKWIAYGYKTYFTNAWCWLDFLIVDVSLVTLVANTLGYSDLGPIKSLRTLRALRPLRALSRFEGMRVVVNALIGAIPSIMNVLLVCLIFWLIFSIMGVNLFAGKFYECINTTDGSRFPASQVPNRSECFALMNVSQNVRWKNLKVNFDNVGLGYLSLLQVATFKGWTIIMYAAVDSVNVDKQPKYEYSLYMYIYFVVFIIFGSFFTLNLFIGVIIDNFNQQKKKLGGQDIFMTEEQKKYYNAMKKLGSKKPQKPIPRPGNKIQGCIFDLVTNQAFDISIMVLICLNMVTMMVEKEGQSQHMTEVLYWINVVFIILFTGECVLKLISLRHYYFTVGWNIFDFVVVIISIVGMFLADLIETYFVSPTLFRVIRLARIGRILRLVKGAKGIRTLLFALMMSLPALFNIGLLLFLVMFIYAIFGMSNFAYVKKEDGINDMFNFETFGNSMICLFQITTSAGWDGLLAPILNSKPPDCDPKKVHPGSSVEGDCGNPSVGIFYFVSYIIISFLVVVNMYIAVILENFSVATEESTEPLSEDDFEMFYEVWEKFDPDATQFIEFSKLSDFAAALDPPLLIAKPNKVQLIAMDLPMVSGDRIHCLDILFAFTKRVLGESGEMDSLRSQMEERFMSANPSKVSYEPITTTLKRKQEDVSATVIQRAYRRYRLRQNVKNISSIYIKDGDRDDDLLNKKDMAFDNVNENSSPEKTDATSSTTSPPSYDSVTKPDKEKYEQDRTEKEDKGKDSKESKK

Bridge positions count the residues as written; N and C are the ends. Peptide text beside a SMILES is read from it.

A word on the IC50: it is the concentration at which inhibition is half-maximal. Lower therefore signals greater potency.

Chain of Sodium channel protein type 5 subunit alpha (Q14524 whole entry): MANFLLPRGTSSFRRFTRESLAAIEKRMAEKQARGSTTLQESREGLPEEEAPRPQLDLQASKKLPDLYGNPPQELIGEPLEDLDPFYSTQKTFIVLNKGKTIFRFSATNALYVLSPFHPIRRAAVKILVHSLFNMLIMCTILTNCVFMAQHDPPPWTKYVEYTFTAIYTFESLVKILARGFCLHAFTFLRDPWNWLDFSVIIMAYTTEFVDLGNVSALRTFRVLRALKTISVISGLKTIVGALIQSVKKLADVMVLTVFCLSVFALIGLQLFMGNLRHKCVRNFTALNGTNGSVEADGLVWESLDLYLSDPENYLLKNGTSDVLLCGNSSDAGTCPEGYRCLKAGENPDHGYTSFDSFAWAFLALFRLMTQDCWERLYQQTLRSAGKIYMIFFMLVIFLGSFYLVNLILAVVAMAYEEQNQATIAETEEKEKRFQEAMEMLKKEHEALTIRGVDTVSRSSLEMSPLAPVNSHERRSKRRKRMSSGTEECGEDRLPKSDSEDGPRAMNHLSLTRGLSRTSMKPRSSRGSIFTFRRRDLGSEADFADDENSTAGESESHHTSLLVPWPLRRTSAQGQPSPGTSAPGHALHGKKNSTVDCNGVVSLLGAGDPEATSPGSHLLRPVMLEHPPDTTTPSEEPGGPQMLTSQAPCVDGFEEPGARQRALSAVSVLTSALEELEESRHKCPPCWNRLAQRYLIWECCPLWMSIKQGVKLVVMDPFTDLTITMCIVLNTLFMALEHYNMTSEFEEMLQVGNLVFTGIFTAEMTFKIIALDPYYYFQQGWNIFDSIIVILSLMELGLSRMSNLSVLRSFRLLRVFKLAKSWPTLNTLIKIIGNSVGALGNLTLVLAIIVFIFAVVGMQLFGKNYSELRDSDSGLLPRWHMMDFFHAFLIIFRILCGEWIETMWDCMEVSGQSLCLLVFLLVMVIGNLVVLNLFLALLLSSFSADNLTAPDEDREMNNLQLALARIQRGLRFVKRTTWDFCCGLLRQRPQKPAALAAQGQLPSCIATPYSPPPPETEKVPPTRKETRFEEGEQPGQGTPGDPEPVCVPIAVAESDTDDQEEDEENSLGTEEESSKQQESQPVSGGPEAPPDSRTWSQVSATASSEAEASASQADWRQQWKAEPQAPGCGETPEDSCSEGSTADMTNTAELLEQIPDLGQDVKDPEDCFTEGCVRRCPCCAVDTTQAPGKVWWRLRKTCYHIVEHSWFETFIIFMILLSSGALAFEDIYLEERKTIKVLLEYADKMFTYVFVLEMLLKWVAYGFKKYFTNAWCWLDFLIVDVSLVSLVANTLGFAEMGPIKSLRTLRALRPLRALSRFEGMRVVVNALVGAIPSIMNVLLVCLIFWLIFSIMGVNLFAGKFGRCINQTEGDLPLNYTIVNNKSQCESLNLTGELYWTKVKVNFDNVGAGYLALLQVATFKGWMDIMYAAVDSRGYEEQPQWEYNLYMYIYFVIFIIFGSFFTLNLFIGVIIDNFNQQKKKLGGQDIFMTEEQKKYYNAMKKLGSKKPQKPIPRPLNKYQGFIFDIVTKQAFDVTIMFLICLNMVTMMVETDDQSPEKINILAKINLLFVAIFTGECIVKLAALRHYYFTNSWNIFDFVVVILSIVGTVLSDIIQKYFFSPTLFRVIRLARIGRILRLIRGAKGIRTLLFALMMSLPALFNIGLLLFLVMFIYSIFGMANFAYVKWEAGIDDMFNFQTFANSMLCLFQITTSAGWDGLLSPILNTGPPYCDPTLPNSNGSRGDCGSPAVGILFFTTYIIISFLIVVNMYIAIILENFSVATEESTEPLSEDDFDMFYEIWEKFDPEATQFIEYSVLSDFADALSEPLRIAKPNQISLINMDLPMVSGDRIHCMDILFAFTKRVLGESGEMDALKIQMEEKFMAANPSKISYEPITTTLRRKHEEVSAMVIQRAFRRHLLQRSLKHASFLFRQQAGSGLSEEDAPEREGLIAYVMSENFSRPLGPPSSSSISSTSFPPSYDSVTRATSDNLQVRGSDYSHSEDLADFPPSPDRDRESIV

For the compound `CC[C@H](C)[C@@H]1NC(=O)[C@@H]2CSSC[C@@H]3NC(=O)[C@H](C(C)C)NC(=O)[C@H](CC(C)C)NC(=O)[C@H](CC(N)=O)NC(=O)[C@@H]4CCCN4C(=O)[C@H](CCCNC(=N)N)NC(=O)[C@H](CSSC[C@H](NC(=O)[C@@H](N)CC(=O)O)C(=O)N[C@@H](CC(C)C)C(=O)NCC(=O)N[C@@H](Cc4ccccc4)C(=O)N[C@@H](CCSC)C(=O)N[C@@H](CCCNC(=N)N)C(=O)N[C@@H](CCCCN)C(=O)N2)NC(=O)[C@H](CSSC[C@@H](C(=O)N[C@@H](CCCCN)C(=O)N[C@@H](Cc2ccc(O)cc2)C(=O)N[C@H](C(=O)N[C@@H](Cc2ccccc2)C(N)=O)C(C)C)NC(=O)[C@H](Cc2c[nH]c4ccccc24)NC(=O)[C@H](C)NC(=O)[C@H](Cc2cnc[nH]2)NC(=O)[C@H]([C@@H](C)O)NC(=O)[C@H](CCCNC(=N)N)NC(=O)[C@H](CO)NC3=O)NC(=O)[C@H](CCCCN)NC(=O)[C@H](CC(=O)O)NC(=O)[C@H](CC(N)=O)NC(=O)[C@H](CC(=O)O)NC(=O)[C@@H]2CCCN2C1=O` (H-DCLGFMRKCIPDNDKCCRPNLVCSRTHAWCKYVF-NH2; disulfide 2-17, 9-23, 16-30), the IC50 in assay [1] was greater than 5000 nM; in assay [2] it was 470 nM.
Consider `CC[C@H](C)[C@@H]1NC(=O)[C@@H]2CSSC[C@@H]3NC(=O)[C@H](C(C)C)NC(=O)[C@H](CC(C)C)NC(=O)[C@H](CC(N)=O)NC(=O)[C@@H]4CCCN4C(=O)[C@H](CCCNC(=N)N)NC(=O)[C@H](CSSC[C@H](NC(=O)[C@@H](N)CC(=O)O)C(=O)N[C@@H](CC(C)C)C(=O)NCC(=O)N[C@@H](Cc4ccccc4)C(=O)N[C@@H](CCSC)C(=O)N[C@@H](CCCNC(=N)N)C(=O)N[C@@H](CCCCN)C(=O)N2)NC(=O)[C@H](CSSC[C@@H](C(=O)N[C@@H](CCCCN)C(=O)N[C@@H](Cc2ccc(O)cc2)C(=O)N[C@H](C(=O)N[C@@H](Cc2ccccc2)C(N)=O)C(C)C)NC(=O)[C@H](Cc2c[nH]c4ccccc24)NC(=O)[C@H](CCC(=O)O)NC(=O)[C@H](Cc2cnc[nH]2)NC(=O)[C@H]([C@@H](C)O)NC(=O)[C@H](CCCNC(=N)N)NC(=O)[C@H](CO)NC3=O)NC(=O)[C@H](CCCCN)NC(=O)[C@H](CC(=O)O)NC(=O)[C@H](CC(N)=O)NC(=O)[C@H](CC(=O)O)NC(=O)[C@@H]2CCCN2C1=O` (H-DCLGFMRKCIPDNDKCCRPNLVCSRTHEWCKYVF-NH2; disulfide 2-17, 9-23, 16-30), for which the values for the IC50 in assay [1] and in assay [2] were greater than 10000 nM and 29 nM, respectively.
For the compound `CC[C@H](C)[C@@H]1NC(=O)[C@@H]2CSSC[C@@H]3NC(=O)[C@H](C(C)C)NC(=O)[C@H](CC(C)C)NC(=O)[C@H](CC(N)=O)NC(=O)[C@@H]4CCCN4C(=O)[C@H](CCCNC(=N)N)NC(=O)[C@H](CSSC[C@H](NC(=O)[C@@H](N)CC(=O)O)C(=O)N[C@@H](CC(C)C)C(=O)NCC(=O)N[C@@H](Cc4ccccc4)C(=O)N[C@@H](CCSC)C(=O)N[C@@H](CCCNC(=N)N)C(=O)N[C@@H](CCCCN)C(=O)N2)NC(=O)[C@H](CSSC[C@@H](C(=O)N[C@@H](CCCCN)C(=O)N[C@@H](Cc2ccc(O)cc2)C(=O)N[C@H](C(=O)N[C@@H](Cc2ccccc2)C(N)=O)C(C)C)NC(=O)[C@H](C)NC(=O)[C@H](CCCCN)NC(=O)[C@H](Cc2cnc[nH]2)NC(=O)[C@H]([C@@H](C)O)NC(=O)[C@H](CCCNC(=N)N)NC(=O)[C@H](CO)NC3=O)NC(=O)[C@H](CCCCN)NC(=O)[C@H](CC(=O)O)NC(=O)[C@H](CC(N)=O)NC(=O)[C@H](CC(=O)O)NC(=O)[C@@H]2CCCN2C1=O` (H-DCLGFMRKCIPDNDKCCRPNLVCSRTHKACKYVF-NH2; disulfide 2-17, 9-23, 16-30), the 50% inhibitory concentration (IC50) in assay [1] and in assay [2] was greater than 5000 nM each time.
Turning to `CC[C@H](C)[C@@H]1NC(=O)[C@@H]2CSSC[C@@H]3NC(=O)[C@H](C(C)C)NC(=O)[C@H](CC(C)C)NC(=O)[C@H](CC(N)=O)NC(=O)[C@@H]4CCCN4C(=O)[C@H](CCCNC(=N)N)NC(=O)[C@H](CSSC[C@H](NC(=O)[C@@H](N)CC(=O)O)C(=O)N[C@@H](CC(C)C)C(=O)NCC(=O)N[C@@H](Cc4ccccc4)C(=O)N[C@@H](CCSC)C(=O)N[C@@H](CCCNC(=N)N)C(=O)N[C@@H](CCCCN)C(=O)N2)NC(=O)[C@H](CSSC[C@@H](C(=O)N[C@@H](C)C(=O)N[C@@H](Cc2ccc(O)cc2)C(=O)N[C@H](C(=O)N[C@@H](Cc2ccccc2)C(N)=O)C(C)C)NC(=O)[C@H](Cc2c[nH]c4ccccc24)NC(=O)[C@H](CCCCN)NC(=O)[C@H](Cc2cnc[nH]2)NC(=O)[C@H]([C@@H](C)O)NC(=O)[C@H](CCCNC(=N)N)NC(=O)[C@H](CO)NC3=O)NC(=O)[C@H](CCCCN)NC(=O)[C@H](CC(=O)O)NC(=O)[C@H](CC(N)=O)NC(=O)[C@H](CC(=O)O)NC(=O)[C@@H]2CCCN2C1=O` (H-DCLGFMRKCIPDNDKCCRPNLVCSRTHKWCAYVF-NH2; disulfide 2-17, 9-23, 16-30), the concentration for half-maximal inhibition (IC50) in assay [1] and in assay [2] was greater than 5000 nM each time.
Turning to `CC[C@H](C)[C@@H]1NC(=O)[C@@H]2CSSC[C@@H]3NC(=O)[C@H](C(C)C)NC(=O)[C@H](CC(C)C)NC(=O)[C@H](CC(N)=O)NC(=O)[C@@H]4CCCN4C(=O)[C@H](CCCNC(=N)N)NC(=O)[C@H](CSSC[C@H](NC(=O)[C@@H](N)CC(=O)O)C(=O)N[C@@H](CC(C)C)C(=O)NCC(=O)N[C@@H](Cc4ccccc4)C(=O)N[C@@H](CCSC)C(=O)N[C@@H](CCCNC(=N)N)C(=O)N[C@@H](CCCCN)C(=O)N2)NC(=O)[C@H](CSSC[C@@H](C(=O)N[C@@H](CCCCN)C(=O)N[C@@H](Cc2ccc(O)cc2)C(=O)N[C@@H](C)C(=O)N[C@@H](Cc2ccccc2)C(N)=O)NC(=O)[C@H](Cc2c[nH]c4ccccc24)NC(=O)[C@H](CCCCN)NC(=O)[C@H](Cc2cnc[nH]2)NC(=O)[C@H]([C@@H](C)O)NC(=O)[C@H](CCCNC(=N)N)NC(=O)[C@H](CO)NC3=O)NC(=O)[C@H](CCCCN)NC(=O)[C@H](CC(=O)O)NC(=O)[C@H](CC(N)=O)NC(=O)[C@H](CC(=O)O)NC(=O)[C@@H]2CCCN2C1=O` (H-DCLGFMRKCIPDNDKCCRPNLVCSRTHKWCKYAF-NH2; disulfide 2-17, 9-23, 16-30), the half-maximal inhibitory concentration (IC50) was greater than 5000 nM in assay [1] and 170 nM in assay [2].
As to `CC[C@H](C)[C@@H]1NC(=O)[C@@H]2CSSC[C@@H]3NC(=O)[C@H](C(C)C)NC(=O)[C@H](CC(C)C)NC(=O)[C@H](CC(N)=O)NC(=O)[C@@H]4CCCN4C(=O)[C@H](CCCNC(=N)N)NC(=O)[C@H](CSSC[C@H](NC(=O)[C@@H](N)CC(=O)O)C(=O)N[C@@H](CC(C)C)C(=O)NCC(=O)N[C@@H](Cc4ccccc4)C(=O)N[C@@H](CCSC)C(=O)N[C@@H](CCCNC(=N)N)C(=O)N[C@@H](CCCCN)C(=O)N2)NC(=O)[C@H](CSSC[C@@H](C(=O)N[C@@H](CCCCN)C(=O)N[C@@H](Cc2ccc(O)cc2)C(=O)N[C@H](C(=O)N[C@@H](C)C(N)=O)C(C)C)NC(=O)[C@H](Cc2c[nH]c4ccccc24)NC(=O)[C@H](CCCCN)NC(=O)[C@H](Cc2cnc[nH]2)NC(=O)[C@H]([C@@H](C)O)NC(=O)[C@H](CCCNC(=N)N)NC(=O)[C@H](CO)NC3=O)NC(=O)[C@H](CCCCN)NC(=O)[C@H](CC(=O)O)NC(=O)[C@H](CC(N)=O)NC(=O)[C@H](CC(=O)O)NC(=O)[C@@H]2CCCN2C1=O` (H-DCLGFMRKCIPDNDKCCRPNLVCSRTHKWCKYVA-NH2; disulfide 2-17, 9-23, 16-30), the IC50 in assay [1] is greater than 5000 nM; in assay [2], 1200 nM.
In the case of `CC[C@H](C)[C@@H]1NC(=O)[C@@H]2CSSC[C@@H]3NC(=O)[C@H](C(C)C)NC(=O)[C@H](CC(C)C)NC(=O)[C@H](CC(N)=O)NC(=O)[C@@H]4CCCN4C(=O)[C@H](CCCNC(=N)N)NC(=O)[C@H](CSSC[C@H](NC(=O)[C@@H](N)CC(=O)O)C(=O)N[C@@H](CC(C)C)C(=O)NCC(=O)N[C@@H](Cc4ccccc4)C(=O)N[C@@H](Cc4c[nH]c5ccccc45)C(=O)N[C@@H](CCCNC(=N)N)C(=O)N[C@@H](CCCCN)C(=O)N2)NC(=O)[C@H](CSSC[C@@H](C(=O)N[C@@H](CCCCN)C(=O)N[C@@H](Cc2ccc(O)cc2)C(=O)N[C@H](C(=O)N[C@@H](Cc2ccccc2)C(N)=O)C(C)C)NC(=O)[C@H](Cc2c[nH]c4ccccc24)NC(=O)[C@H](CCCCN)NC(=O)[C@H](Cc2cnc[nH]2)NC(=O)[C@H]([C@@H](C)O)NC(=O)[C@H](CCCNC(=N)N)NC(=O)[C@H](CO)NC3=O)NC(=O)[C@H](CCCCN)NC(=O)[C@H](CC(=O)O)NC(=O)[C@H](CC(N)=O)NC(=O)[C@H](CC(=O)O)NC(=O)[C@@H]2CCCN2C1=O` (H-DCLGFWRKCIPDNDKCCRPNLVCSRTHKWCKYVF-NH2; disulfide 2-17, 9-23, 16-30), the figures for the IC50 in assay [1] and in assay [2] were 3400 nM and 23 nM, respectively.
Regarding `CC[C@H](C)[C@@H]1NC(=O)[C@@H]2CSSC[C@@H]3NC(=O)[C@H](C(C)C)NC(=O)[C@H](CC(C)C)NC(=O)[C@H](CC(N)=O)NC(=O)[C@@H]4CCCN4C(=O)[C@H](CCCNC(=N)N)NC(=O)[C@H](CSSC[C@H](NC(=O)[C@@H](N)CC(=O)O)C(=O)N[C@@H](CC(C)C)C(=O)NCC(=O)N[C@@H](Cc4ccccc4)C(=O)N[C@@H](Cc4ccc(O)cc4)C(=O)N[C@@H](CCCNC(=N)N)C(=O)N[C@@H](CCCCN)C(=O)N2)NC(=O)[C@H](CSSC[C@@H](C(=O)N[C@@H](CCCCN)C(=O)N[C@@H](Cc2ccc(O)cc2)C(=O)N[C@H](C(=O)N[C@@H](Cc2ccccc2)C(N)=O)C(C)C)NC(=O)[C@H](Cc2c[nH]c4ccccc24)NC(=O)[C@H](CCCCN)NC(=O)[C@H](Cc2cnc[nH]2)NC(=O)[C@H]([C@@H](C)O)NC(=O)[C@H](CCCNC(=N)N)NC(=O)[C@H](CO)NC3=O)NC(=O)[C@H](CCCCN)NC(=O)[C@H](CC(=O)O)NC(=O)[C@H](CC(N)=O)NC(=O)[C@H](CC(=O)O)NC(=O)[C@@H]2CCCN2C1=O` (H-DCLGFYRKCIPDNDKCCRPNLVCSRTHKWCKYVF-NH2; disulfide 2-17, 9-23, 16-30), the figures for the IC50 in assay [1] and in assay [2] were greater than 10000 nM and 63 nM, respectively.

Values taken from ChEMBL document CHEMBL3414527, “Engineering potent and selective analogues of GpTx-1, a tarantula venom peptide antagonist of the Na(V)1.7 sodium channel” (J Med Chem, 2015).
